Experimental data taken from patent US8828966B2, “Method for treatment of macular degeneration by modulating P2Y12 or P2X7 receptors” (priority 2006, dated 2014).

How the values were obtained:
[1] = test system: ARPE-19 cells; assay: Lysosomal pH (pHL) with LysoSensor Yellow/Blue, high through-put screen; type: cell-based, human; settings: for effect on pHL, agent alone: cells without other alkalinizing agent, NH4Cl 10 mM, BAF 200 nM, CHQ 20 μM, CFTR-172 10 μM, LDL 10 μg/ml, others not given; for effect on pHL of cells treated with tamoxifen: tamoxifen concentration not stated, A68930 and A77636 at 1 μM; for effect on pHL of cells treated with 30 μM tamoxifen: CFTRAct16 at 10 μM; for effect on pHL of cells treated with chloroquine: chloroquine (20 μM with CGS21680 100 nM)
Description: Lysosensor Yellow/Blue co-localized with the Lysotracker Red dye in small vesicles, with a distribution consistent with lysosomal origin. Measurements of pHL were performed using a high throughput screening (HTS) protocol to maximize output and minimize variation using ARPE-19 cells in 96 well plates. […] Loading for 5 min. at 23° C. with 5 μM lysosensor, followed by 15 min. for internalization, produced stable and reproducible results.
The ratio was converted to pH by calibrating with KCl buffered to pH 4.0-6.0 in the presence of monensin and nigericin. Calibration indicated a baseline pH of 4.4 to 4.5, supporting lysosomal localization. […] NH4Cl decreased the ratios slightly at 380 nm. Nevertheless, absent the addition of the dye, none of these compounds, or any others, altered the fluorescent signal at 340 or 380 nm, showing a specificity of the measured change to pHL. […] This quantification is necessary to predict the potential effectiveness of acidifying drugs to restore lysosomal enzyme activity.
Extensive trials determined that the optimal response is obtained with 5 minute dye loading and 15 minute post-incubation. […] All reagents were from Sigma Chemical Corp. unless otherwise indicated.
In general, each condition below used 3-12 independent wells per plate, in 3-6 separate plates. As levels from individual plates varied, data was normalized to the mean pHL for control wells from each plate. Fluorescent ratios were converted to pH following calibration performed on each plate as described. Incubation with Lysosensor Yellow/Blue was kept constant and all measurements were performed 15 min after removal of dye from the bath to ensure continuity. Significance was determined with a one-way ANOVA and Tukey post test. Drugs were always tested on control cells to ensure modification of healthy RPE cells was minimal, and cells were not exposed to dye to make sure effects were specific. All background was subtracted from the fluorescence excited at 340 and 380 nm independently before calculation of the ratio.

[2] = test system: primary cultures of bovine RPE cells; assay: Lysosomal pH in primary bovine RPE cultures; type: cell-based
Description: Isolation of Bovine and Mouse RPE Cells: The bovine RPE-choroid and sclera were removed, incubated in 2.5% trypsin at 37° C. in 5% CO2 for 30 min, after which RPE sheets are dissected, washed and plated in 96-well plates with 10% serum medium. Mouse eyes were incubated in DMEM for 3 hrs at room temperature (RT), then in 0.1% trypsin and 0.4 mg/ml collagenase IV with 1 mM EDTA for 45 min at RT. RPE sheets were dissected out, washed, and incubated with 0.25% trypsin/0.02% EDTA in order to obtain a suspension of single cells, then grown as above.
HTS Measurement of pHL: ARPE-19 cells were grown in 96-well plates, rinsed 3× with isotonic solution (IS; prepared from NaCl 105 mM, KCl 5 mM, HEPES Acid 6 mM, Na HEPES 4 mM, NaHCO3 5 mM, mannitol 60 mM, glucose 5 mM, MgCl2 0.5 mM, CaCl2 1.3 mM) and incubated with 5 μM LysoSensor Yellow/Blue (Invitrogen Corp.) diluted with IS. Extensive trials determined that the optimal response is obtained with 5 minute dye loading and 15 minute post-incubation. Fluorescence was measured with a Fluoroskan 96-well Plate Reader (Thermo Electron Corp.). pHL was determined from the ratio of light excited at 340 nm vs 380 nm ([…] em). pHL was calibrated by exposing cells to 10 μM H^+/Na^+ ionophore monensin and 20 μM H^+/K^+ ionophore nigericin in 20 MES, 110 KCl and 20 NaCl at pH 3.0-7.0 for 15 min. All reagents were from Sigma Chemical Corp. unless otherwise indicated.

[3] = test system: ARPE-19 cells; assay: Clearance (degradation) of calcein-labeled photoreceptor outer segments; type: cell-based, human
Description: Outer Segment Degradation: Bovine retinas were homogenized in 20% sucrose with 130 mM NaCl, 20 mM Tris-HCl, 10 mM glucose, 5 mM taurine and 2 mM MgC12 (pH 7.20). The homogenate was placed in ultracentrifuge tubes with 20%, 27%, 33%, 41%, 50% and 60% sucrose, respectively, and centrifuged for 70 minutes at 28,000 rpm on a SW28 rotor (4° C.). The supernatant was filtered, diluted in 0.02M Tris-HCl buffer (pH 7.2) and centrifuged at 13,000×g for 10 minutes (4° C.). The pellet was resuspended in […], 0.1 mM NaCl and 2.5% sucrose. Outer segments were loaded with 5 μM calcein-AM in PBS for 10 minutes, and spun 2× at 14,000 rpm to wash. Outer segments were then diluted 1:100 in growth medium and added to ARPE-19 cells in 96-well plates.
Isolated bovine outer segments loaded with calcein were supplied to ARPE-19 cells in 96-well plates for 2 hrs, washed 3× and maintained in control medium for an additional 3 hr (see Methods). […] Promising compounds were examined for their effects on cells treated with A2E, although the restoration of pHL is unlikely to remove A2E itself. However, other components of the outer segments are amendable to digestion by lysosomal enzymes at the appropriate pHL, and acidification could minimize the secondary effect of this accumulation.

[4] = test system: ARPE-19 cells; assay: FACS analysis of autofluorescence (excited at 488 nm); type: cell-based, human; settings: for effect on autofluorescence enhanced by POS+CHQ: photoreceptor outer segments plus 10 μM chloroquine, 7 days
Source text: To maintain a balance between the synthesis, degradation, and subsequent recycling of cellular products there are a variety of autophagic responses, but all involve degradation of intracellular components via the lysosome. Typically, autophagy involves the formation of a membrane around a targeted region of the cell, separating the contents from the rest of the cytoplasm, and then the resultant vesicle fuses with a lysosome and the contents are subsequently degraded.

[5] = test system: ABCA4−/− mice; assay: Oral P2Y12 inhibitor in ABCA4-/- mice, lysosomal pH of RPE cells; type: in vivo, mouse; settings: 9-11 month old mice, 50 mg/kg orally, single dose, cells removed 4 hrs later
Description: In this example the selected P2Y12 inhibitor was clopidogrel (commercially available as Plavix), but the invention need not be so limited, and other P2Y12 inhibitors, such as AR-C66096, may be used. The clopidogrel was given orally at 50 mg/kg and the pH measured from RPE cells that were removed 4 hrs later.

Compound: Nc1ncnc2c1nc(Br)n2[C@@H]1O[C@@H]2COP(=O)(O)O[C@H]2[C@H]1O [8-Br-cAMP, 8-bromo-adenosine 3′,5′-cyclic monophosphate]
- effect on pHL of cells treated with 10 μM tamoxifen [1]: not significant

Compound: CC/C(=C(\c1ccccc1)c1ccc(OCCN(C)C)cc1)c1ccccc1 [tamoxifen]
- time for elevated lysosomal pH to reach a plateau [1]: 10-15 minutes
- effect on pHL, agent alone [1]: raised pHL
- effect on pHL, agent alone [2]: increased pHL
- clearance of calcein-labeled outer segments, alkalinizing agent alone ([3]; after 24 hrs): slowed clearance of outer segments

Compound: C[C@]12CC[C@@H]3c4ccc(O)cc4CC[C@H]3[C@@H]1CC[C@@H]2O [17-β estradiol]
- effect on pHL of cells treated with tamoxifen [1]: neither mimicked, nor inhibited

Compound: CC(C)OC(=O)CCC/C=C\C[C@@H]1[C@@H](CC[C@@H](O)CCc2ccccc2)[C@H](O)C[C@@H]1O [latanaprost]
- effect on pHL of cells treated with 30 μM tamoxifen [1]: did not lower pHL

Compound: O=c1c(-c2ccc(O)cc2)coc2cc(O)cc(O)c12 [genistein]
- effect on pHL, agent alone [1]: smaller effects
- effect on pHL of cells treated with tamoxifen [1]: acidified lysosomes

Compound: OC[C@H]1O[C@@H](n2cnc3c(NC4CCCC4)ncnc32)[C@H](O)[C@@H]1O [CPA, N^6-cyclopentyl-adenosine]
- effect on pHL of cells treated with tamoxifen [1]: had no effect

Compound: CC(C)NCC(O)c1ccc(O)c(O)c1 (stereo not shown) [isoproterenol]
- effect on pHL of cells treated with tamoxifen [1]: significantly decrease pHL

Compound: CCOc1ccc(Nc2ccc(/C(=C3C=C/C(=[N+](/CC)Cc4cccc(S(=O)(=O)[O-])c4)C=C/3C)c3ccc(N(CC)Cc4cccc(S(=O)(=O)[O-])c4)cc3C)cc2)cc1.[Na+] [BBG]
- effect on pHL rise by P2X7 agonist BzATP ([1]; cells stimulated with BzATP): prevented this rise
- effect on autofluorescence enhanced by POS+CHQ [4]: reduced this enhanced autofluorescence

Compound: Nc1ncnc2c1ncn2[C@@H]1O[C@H](CO)[C@@H](O)[C@H]1O [adenosine]
- effect on pHL of cells treated with tamoxifen [1]: reduce the pHL
- effect on pHL of bovine cells treated with tamoxifen [2]: acidified the lysosomes

Compound: O=C(O)c1cc([N+](=O)[O-])ccc1NCCCc1ccccc1 [NPPB, 5-nitro-2-(3-phenylpropylamino)-benzoate]
- effect on pHL of cells treated with tamoxifen [1]: reversed

Compound: CCN[C@H]1C[C@H](C)S(=O)(=O)c2sc(S(N)(=O)=O)cc21 [dorzolamide]
- effect on pHL of cells treated with 30 μM tamoxifen [1]: did not lower pHL

Compound: CO/C1=C\C(C)=C\[C@@H](C)[C@@H](O)[C@@H](C)C/C(C)=C/C=C/[C@H](OC)[C@@H]([C@@H](C)[C@@H](O)[C@H](C)[C@@]2(O)C[C@@H](O)[C@H](C)[C@@H](C(C)C)O2)OC1=O [bafilomycin-A]
- effect on pHL, agent alone [1]: pH was elevated

Compound: COC(=O)[C@H](c1ccccc1Cl)N1CCc2sccc2C1 [clopidogrel]
- lysosomal pHL in RPE cells after single oral dose [5]: reduced

Compound: NC[C@H](O)c1ccc(O)c(O)c1 [norepinephrine]
- effect on pHL of cells treated with chloroquine [1]: reduced pHL
- effect on pHL of cells treated with tamoxifen [1]: significantly decrease pHL

Compound: COc1ccc(Cl)cc1C(=O)NCCc1ccc(S(=O)(=O)NC(=O)NC2CCCCC2)cc1 [glybenclamide]
- effect on pHL, agent alone [1]: smaller effects
- effect on pHL of cells treated with tamoxifen [1]: increased pHL

Compound: CSc1nc(N)c2ncn([C@@H]3O[C@H](COP(=O)(O)OP(=O)(O)O)[C@@H](O)[C@H]3O)c2n1 [MeSADP]
- effect on pHL, agent alone [1]: elevated the lysosomal pHL

Compound: CCN(CC)CCCC(C)Nc1ccnc2cc(Cl)ccc12 (stereo not shown) [chloroquine]
- effect on pHL, agent alone [1]: pH was elevated
- autofluorescence, agent alone ([4]; 10 μM for 7 days): increased autofluorescence

Compound: CCCSc1nc(N)c2ncn([C@@H]3O[C@H](COP(=O)([O-])OP(=O)([O-])C(F)(F)P(=O)([O-])[O-])[C@@H](O)[C@H]3O)c2n1.[Na+].[Na+].[Na+].[Na+] [AR-C66096, 2-(Propylthio) adenosine-5′-O-(β,γ-difluoromethylene) triphosphate tetrasodium salt]
- effect on pHL elevation by P2Y12 agonist MeSADP ([1]; cells stimulated with MeSADP): inhibited these actions and restored lysosomal acidity
- effect on autofluorescence enhanced by POS+CHQ [4]: reduced this enhanced auto-fluorescence to near control levels

Compound: CCNC(=O)[C@H]1O[C@@H](n2cnc3c(N)nc(NCCc4ccc(CCC(=O)O)cc4)nc32)[C@H](O)[C@@H]1O [CGS21680]
- effect on pHL of cells treated with 10 μM tamoxifen [1]: Over half of the increase triggered by 10 μM tamoxifen was reversed
- effect on pHL of cells treated with chloroquine [1]: decreased the lysosomal alkalinization
- effect on pHL of cells treated with tamoxifen [1]: acidified the lysosomes
- degradative capacity (outer segment clearance) in chloroquine-treated cells ([3]; 100 nM CGS with 20 μM CHQ, 24 hrs): restored the degradative capacity

Compound: Nc1ncnc2c1nc(Sc1ccc(Cl)cc1)n2[C@@H]1O[C@@H]2COP(=O)([O-])O[C@H]2[C@H]1O.[Na+] [cpt-cAMP, 8-(4-chlorophenylthio) adenosine-3′,5′-cyclic monophosphate]
- effect on pHL of cells treated with 10 μM tamoxifen [1]: significantly decreased pHL
- effect on pHL of cells treated with 30 μM tamoxifen [1]: significantly decreased pHL

Compound: O=C(O)c1ccc(/C=C2\SC(=S)N(c3cccc(C(F)(F)F)c3)C2=O)cc1 [CFTR-172]
- effect on pHL, agent alone [1]: increased lysosomal pH

Compound: OC[C@H]1O[C@@H](n2cnc3c(NC4CC5CCC4C5)ncnc32)[C@H](O)[C@@H]1O (stereo partly drawn) [ENBA, (2S)-N^6-[2-endo-norbornyl]adenosine]
- effect on pHL of cells treated with tamoxifen [1]: had no effect

Compound: CN[C@@H]1C[C@H]2O[C@@](C)([C@@H]1OC)n1c3ccccc3c3c4c(c5c6ccccc6n2c5c31)C(=O)NC4 [staurosporine]
- effect on pHL of cells treated with tamoxifen [1]: decrease in lysosomal pH

Compound: CNC[C@H](O)c1ccc(O)c(O)c1 [epinephrine]
- effect on pHL of cells treated with tamoxifen [1]: significantly decrease pHL

Compound: CCNC(=O)[C@H]1O[C@@H](n2cnc3c(N)ncnc32)[C@H](O)[C@@H]1O [NECA, 5′-(N-ethylcarboxamido) adenosine]
- effect on pHL of cells treated with tamoxifen [1]: reversed lysosomal alkalinization by tamoxifen
- effect on pHL of bovine cells treated with tamoxifen [2]: not quite significant

Compound: CC(C)(C)NC[C@H](O)COc1nsnc1N1CCOCC1 [timolol]
- effect on pHL of cells treated with 30 μM tamoxifen [1]: did not lower pHL
- effect on the reduction of pHL triggered by norepinephrine ([1]; cells treated with tamoxifen plus norepinephrine): blocked

Compound: CNC[C@H](O)c1cccc(O)c1 [phenylephrine]
- effect on pHL of cells treated with tamoxifen [1]: no significant effect on pHL
